The values below come from patent US20230192661A1, “1, 4, 5, 6-TETRAHYDROPYRIMIDINE-2-AMINE DERIVATIVE” (UBE Corporation, priority 2020, published 2023).

One assay has as its target T1, αvβ6 (Homo sapiens, UniProt P06756+P18564).
T1 construct: endogenous in cells; host or cells: HT-29 cells
Description: αvβ6 cell adhesion inhibition test (HT-29 cells on recombinant human LAP protein). It counts as cell-based. To be noted: recombinant human LAP coating, 200 μM MnCl2, 1 hour, read-out: IC50 (rate of inhibition of cell adhesion, αvβ6). In outline: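 HT-29 cells in DMEM/0.1% BSA with 200 μM MnCl2 plus test compound, 1 h adhesion at 37 °C on plates coated with […] recombinant human LAP (BSA-blocked). Adherent cells crystal-violet stained and absorbance read; inhibition scaled between uncoated wells (100%) and DMSO (0%), IC50 derived and binned A–E.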

Assay [1] relates to Human hepatic stellate cells. Description: Active human hepatic stellate cell dedifferentiation test (decrease in ACTA2 mRNA expression). It counts as cell-based. To be noted: 3 days differentiation then 2 days with compound, read-out: IC50 (rate of decrease in ACTA2 mRNA expression). The essentials:
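Human hepatic stellate cells differentiated 3 days in DMEM/10% FBS, then exposed to compound for 2 days (0.1% DMSO final) at 37° C. ACTA2 mRNA measured by RT-qPCR, normalized to GAPDH (comparative Ct). Decrease scaled between DMSO (100%) and start-of-differentiation cells (0%); IC50 derived from it.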

SMILES strings stand for the structures.

T1 sequence (P06756 31-889 limits assumed): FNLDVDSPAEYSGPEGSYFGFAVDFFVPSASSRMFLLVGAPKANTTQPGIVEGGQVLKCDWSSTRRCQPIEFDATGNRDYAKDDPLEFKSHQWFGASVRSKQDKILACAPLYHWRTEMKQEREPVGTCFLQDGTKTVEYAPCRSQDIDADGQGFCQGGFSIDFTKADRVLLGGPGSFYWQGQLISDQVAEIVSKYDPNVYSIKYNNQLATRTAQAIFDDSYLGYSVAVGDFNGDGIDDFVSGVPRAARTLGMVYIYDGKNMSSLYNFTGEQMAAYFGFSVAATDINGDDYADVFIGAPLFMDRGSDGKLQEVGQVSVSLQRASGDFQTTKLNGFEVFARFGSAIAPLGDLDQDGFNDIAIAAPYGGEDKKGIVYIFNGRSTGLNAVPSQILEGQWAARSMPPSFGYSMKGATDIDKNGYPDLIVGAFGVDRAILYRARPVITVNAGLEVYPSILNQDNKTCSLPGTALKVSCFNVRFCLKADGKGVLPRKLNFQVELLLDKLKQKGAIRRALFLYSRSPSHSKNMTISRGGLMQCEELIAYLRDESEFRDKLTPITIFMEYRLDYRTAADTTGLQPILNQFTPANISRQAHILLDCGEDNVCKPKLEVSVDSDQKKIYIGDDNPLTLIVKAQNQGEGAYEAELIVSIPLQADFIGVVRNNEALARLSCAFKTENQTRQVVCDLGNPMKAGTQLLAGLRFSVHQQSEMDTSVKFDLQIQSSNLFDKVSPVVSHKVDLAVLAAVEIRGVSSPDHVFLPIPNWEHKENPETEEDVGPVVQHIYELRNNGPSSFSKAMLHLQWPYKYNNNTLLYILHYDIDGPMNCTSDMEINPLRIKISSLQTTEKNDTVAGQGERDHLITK
T1 sequence (P06756 891-1048 limits assumed): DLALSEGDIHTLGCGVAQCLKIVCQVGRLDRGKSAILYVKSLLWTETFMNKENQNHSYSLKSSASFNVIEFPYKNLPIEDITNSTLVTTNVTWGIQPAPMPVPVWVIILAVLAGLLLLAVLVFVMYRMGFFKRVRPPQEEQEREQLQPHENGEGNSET
T1 sequence (P18564 22-788): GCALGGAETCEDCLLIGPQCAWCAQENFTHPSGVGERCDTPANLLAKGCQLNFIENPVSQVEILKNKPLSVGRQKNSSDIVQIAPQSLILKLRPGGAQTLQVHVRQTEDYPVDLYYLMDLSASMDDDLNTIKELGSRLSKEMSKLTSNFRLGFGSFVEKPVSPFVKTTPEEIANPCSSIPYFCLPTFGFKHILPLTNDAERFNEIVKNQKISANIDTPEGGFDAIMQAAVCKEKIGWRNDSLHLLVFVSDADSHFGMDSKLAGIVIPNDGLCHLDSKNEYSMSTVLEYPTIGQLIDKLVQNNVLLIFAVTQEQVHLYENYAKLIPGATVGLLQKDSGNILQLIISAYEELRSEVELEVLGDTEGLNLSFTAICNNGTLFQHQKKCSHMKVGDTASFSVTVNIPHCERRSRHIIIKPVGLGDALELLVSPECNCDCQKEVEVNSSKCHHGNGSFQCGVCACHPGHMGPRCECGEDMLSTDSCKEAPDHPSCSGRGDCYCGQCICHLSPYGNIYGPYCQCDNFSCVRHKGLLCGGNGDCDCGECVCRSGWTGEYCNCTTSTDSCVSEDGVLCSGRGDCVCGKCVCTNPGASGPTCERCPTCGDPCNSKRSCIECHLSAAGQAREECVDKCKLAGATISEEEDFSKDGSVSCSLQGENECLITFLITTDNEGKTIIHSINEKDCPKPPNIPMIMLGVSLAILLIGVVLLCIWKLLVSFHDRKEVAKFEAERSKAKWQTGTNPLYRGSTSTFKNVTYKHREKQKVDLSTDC

As to `O=C(O)C[C@H](NC(=O)CNC(=O)c1cc(NC2=NCC(F)CN2)c2cn[nH]c2c1)c1ccc(F)c(OC(F)(F)F)c1` (stereo partly drawn) [Example 34-(b), (3S)-3-(2-(4-((5-fluoro-1,4,5,6-tetrahydropyrimidin-2-yl)amino)-1H-indazole-6-carboxamido)acetamido)-3-(4-fluoro-3-(trifluoromethoxy)phenyl)propanoic acid], the results for the IC50 (on αvβ6; in assay [1]) were less than 3 nM and 10 to 50 nM, respectively.

`O=C(O)C[C@H](NC(=O)CNC(=O)c1cc(NC2=NCC(F)CN2)c2cn[nH]c2c1)c1cccc(C(F)(F)F)c1` (stereo partly drawn) [Example 35-(b), (3S)-3-(2-(4-((5-fluoro-1,4,5,6-tetrahydropyrimidin-2-yl)amino)-1H-indazole-6-carboxamido)acetamido)-3-(3-(trifluoromethyl)phenyl)propanoic acid]: the results for the IC50 (on αvβ6; in assay [1]) were less than 3 nM and less than 10 nM, respectively.

Take `O=C(O)C[C@H](NC(=O)CNC(=O)c1cc(NC2=NCC(F)CN2)c2cn[nH]c2c1)c1cccc(OC(F)(F)F)c1` (stereo partly drawn) [Example 36-(b), (3S)-3-(2-(4-((5-fluoro-1,4,5,6-tetrahydropyrimidin-2-yl)amino)-1H-indazole-6-carboxamido)acetamido)-3-(3-(trifluoromethoxy)phenyl)propanoic acid]: the IC50 on αvβ6 was less than 3 nM; in assay [1], 10 to 50 nM.

In the case of `O=C(O)C[C@H](NC(=O)CNC(=O)c1cc(NC2=NCC(F)CN2)c2cn[nH]c2c1)c1cccc(OC(F)F)c1` (stereo partly drawn) [Example 37-(b), (3S)-3-(3-(difluoromethoxy)phenyl)-3-(2-(4-((5-fluoro-1,4,5,6-tetrahydropyrimidin-2-yl)amino)-1H-indazole-6-carboxamido)acetamido)propanoic acid], the IC50 is less than 3 nM at αvβ6 and 10 to 50 nM in assay [1].

`O=C(O)C[C@H](NC(=O)CNC(=O)c1cc(NC2=NCC(F)CN2)c2cn[nH]c2c1)c1cccc(C(F)F)c1` (stereo partly drawn) [Example 38-(b), (3S)-3-(3-(difluoromethyl)phenyl)-3-(2-(4-((5-fluoro-1,4,5,6-tetrahydropyrimidin-2-yl)amino)-1H-indazole-6-carboxamido)acetamido)propanoic acid]: the results for the IC50 (at αvβ6; in assay [1]) were less than 3 nM and less than 10 nM, respectively.

In the case of `O=C(O)C[C@H](NC(=O)CNC(=O)c1cc(NC2=NCC(F)CN2)c2cn[nH]c2c1)c1cccc(C2CC2)c1` (stereo partly drawn) [Example 39-(b), (3S)-3-(3-cyclopropylphenyl)-3-(2-(4-((5-fluoro-1,4,5,6-tetrahydropyrimidin-2-yl)amino)-1H-indazole-6-carboxamido)acetamido)propanoic acid], the IC50 on αvβ6 is less than 3 nM; in assay [1] it was less than 10 nM.

With `O=C(O)C[C@H](NC(=O)CNC(=O)c1cc(NC2=NCC(F)CN2)c2cn[nH]c2c1)c1cccc(OC2CC2)c1` (stereo partly drawn) [Example 40-(b), (3S)-3-(3-cyclopropoxyphenyl)-3-(2-(4-((5-fluoro-1,4,5,6-tetrahydropyrimidin-2-yl)amino)-1H-indazole-6-carboxamido)acetamido)propanoic acid], the IC50 is less than 3 nM on αvβ6 and 10 to 50 nM in assay [1].

Regarding `O=C(O)C[C@H](NC(=O)CNC(=O)c1cc(NC2=NCC(F)CN2)c2cn[nH]c2c1)c1cccc(Cl)c1` (stereo partly drawn) [Example 41-(b), (3S)-3-(3-chlorophenyl)-3-(2-(4-((5-fluoro-1,4,5,6-tetrahydropyrimidin-2-yl)amino)-1H-indazole-6-carboxamido)acetamido)propanoic acid], the IC50 on αvβ6 was less than 3 nM; in assay [1], 10 to 50 nM.

In the case of `O=C(O)C[C@H](NC(=O)CNC(=O)c1cc(NC2=NCC(F)CN2)c2cn[nH]c2c1)c1cccc(Br)c1` (stereo partly drawn) [Example 42-(b), (3S)-3-(3-bromophenyl)-3-(2-(4-((5-fluoro-1,4,5,6-tetrahydropyrimidin-2-yl)amino)-1H-indazole-6-carboxamido)acetamido)propanoic acid], the IC50 at αvβ6 was less than 3 nM; in assay [1] it was 10 to 50 nM.

Take `O=C(O)C[C@H](NC(=O)CNC(=O)c1cc(NC2=NCC(F)CN2)c2cn[nH]c2c1)c1cccc(-n2cccn2)c1` (stereo partly drawn) [Example 43-(b), (3S)-3-(3-(1H-pyrazol-1-yl)phenyl)-3-(2-(4-((5-fluoro-1,4,5,6-tetrahydropyrimidin-2-yl)amino)-1H-indazole-6-carboxamido)acetamido)propanoic acid]: the IC50 on αvβ6 was less than 3 nM; in assay [1] it was 10 to 50 nM.

Regarding `O=C(O)C[C@H](NC(=O)CNC(=O)c1cc(NC2=NCC(F)CN2)c2c(F)n[nH]c2c1)c1cc(Cl)cc(C(F)(F)F)c1` (stereo partly drawn) [Example 48-(b), (3S)-3-(3-chloro-5-(trifluoromethyl)phenyl)-3-(2-(3-fluoro-4-((5-fluoro-1,4,5,6-tetrahydropyrimidin-2-yl)amino)-1H-indazole-6-carboxamido)acetamido) propanoic acid], the IC50 was less than 3 nM at αvβ6 and less than 10 nM in assay [1].

For the compound `O=C(O)C[C@H](NC(=O)CNC(=O)c1cc(NC2=NCC(F)CN2)c2c(Cl)n[nH]c2c1)c1cc(Cl)cc(C(F)(F)F)c1` (stereo partly drawn) [Example 49-(b), (3S)-3-(2-(3-chloro-4-((5-fluoro-1,4,5,6-tetrahydropyrimidin-2-yl)amino)-1H-indazole-6-carboxamido)acetamido)-3-(3-chloro-5-(trifluoromethyl)phenyl)propanoic acid], the IC50 on αvβ6 was less than 3 nM; in assay [1], less than 10 nM.

In the case of `O=C(O)C[C@H](NC(=O)CNC(=O)c1cc(NC2=NCC(F)CN2)cc2[nH]ncc12)c1cc(Cl)cc(C(F)(F)F)c1` (stereo partly drawn) [Example 52-(b), (3S)-3-(3-chloro-5-(trifluoromethyl)phenyl)-3-(2-(6-((5-fluoro-1,4,5,6-tetrahydropyrimidin-2-yl)amino)-1H-indazole-4-carboxamido)acetamido)propanoic acid], the IC50 was less than 3 nM on αvβ6 and 10 to 50 nM in assay [1].

With `O=C(O)C[C@H](NC(=O)CNC(=O)c1cc(NC2=NCC(F)CN2)cc2[nH]ncc12)c1cc(Br)cc(C(F)(F)F)c1` (stereo partly drawn) [Example 53-(b), (3S)-3-(3-bromo-5-(trifluoromethyl)phenyl)-3-(2-(6-((5-fluoro-1,4,5,6-tetrahydropyrimidin-2-yl)amino)-1H-indazole-4-carboxamido)acetamido)propanoic acid], the IC50 at αvβ6 is less than 3 nM; in assay [1], 10 to 50 nM.

`O=C(O)C[C@H](NC(=O)CNC(=O)c1cc(NC2=NCC(F)CN2)cc2[nH]ncc12)c1cc(I)cc(C(F)(F)F)c1` (stereo partly drawn) [Example 54-(b), (3S)-3-(2-(6-((5-fluoro-1,4,5,6-tetrahydropyrimidin-2-yl)amino)-1H-indazole-4-carboxamido)acetamido)-3-(3-iodo-5-(trifluoromethyl)phenyl)propanoic acid]: the IC50 at αvβ6 was less than 3 nM; in assay [1], 10 to 50 nM.

With `O=C(O)C[C@H](NC(=O)CNC(=O)c1cc(NC2=NCC(F)CN2)cc2[nH]ncc12)c1ccc(F)c(C(F)(F)F)c1` (stereo partly drawn) [Example 55-(b), (3S)-3-(2-(6-((5-fluoro-1,4,5,6-tetrahydropyrimidin-2-yl)amino)-1H-indazole-4-carboxamido)acetamido)-3-(4-fluoro-3-(trifluoromethyl)phenyl)propanoic acid], the IC50 was less than 3 nM at αvβ6 and less than 10 nM in assay [1].

As for `O=C(O)C[C@H](NC(=O)CNC(=O)c1cc(NC2=NCC(F)CN2)cc2[nH]ncc12)c1cccc(C(F)(F)F)c1` (stereo partly drawn) [Example 56-(b), (3S)-3-(2-(6-((5-fluoro-1,4,5,6-tetrahydropyrimidin-2-yl)amino)-1H-indazole-4-carboxamido)acetamido)-3-(3-(trifluoromethyl)phenyl)propanoic acid], the IC50 on αvβ6 was 3 to 10 nM; in assay [1] it was less than 10 nM.

In general, IC50 refers to the concentration needed to halve the response being measured.
